Laboratory results reported in patent US8501732B2, “Aminomethyl quinolone compounds” (Hoffmann-La Roche Inc., priority 2011, dated 2013).

Columns and labels:
JNK1 = JNK1 (Homo sapiens (Human), UniProt P45983); assay: In Vitro JNK1 Assay (TR-FRET, phosphorylation of GST-c-Jun); type: biochemical; conditions: 0.2 nM active JNK1 kinase, 26.7 nM GST-c-Jun, 2 μM ATP, 30 min at room temperature
Method in brief: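 IC50 derived from percent inhibition across 10 serially diluted concentrations, with TR-FRET detection of phospho-c-Jun via an anti-phospho-c-Jun antibody after EDTA stop. Substrate was GST-c-Jun 1-79, reacted 30 min at room temperature in pH 7.0 HEPES buffer with MgCl2, DTT, vanadate and BSA.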

[1] = system: phospho(Ser63)-c-jun in HK-2 cells; assay: Cell-Based Assay for JNK Inhibitors (in-cell ELISA, phospho(Ser63)-c-jun after TNFα); conditions: HK-2 cells (human proximal tubule cells), 60 minutes compound, then 10 ng/mL TNFα for 30 minutes
Procedure: Cell-Based Assay for JNK Inhibitors
The cell-based assay employed the in-cell ELISA method to determine the ability of compounds to prevent the generation of phospho(Ser63)-c-jun in HK-2 cells (human proximal tubule cells) in response to stimulation with tumor necrosis factor α (TNFα). In brief, for quantification of phospho(Ser63)-c-jun, the cells (in 96-well format) were fixed and permeablized then incubated sequentially with a rabbit anti-phospho-c-jun First Antibody specific for the presence of the phospho-Ser63 epitope and a donkey anti-rabbit IgG Second Antibody linked to horseradish peroxidase (HRP) for colorimetric quantitation of binding. […] Blank wells received no TNFα stimulation or compound. Additional Control wells received TNFα stimulation, but no compound.
Stock cultures of HK-2 cells (ATCC, Manassas, Va.) were grown under a 5% CO2/[…] atmosphere at 37 degrees C. in Keratinocyte-SFM medium (KSFM, Invitrogen, Grand Island, N.Y.) containing 5 μg/L epidermal growth factor and 5 mg/L bovine pituitary extract (both supplied with the medium), additionally supplemented with 10% (v/v) fetal calf serum (FCS; Invitrogen, Grand Island, N.Y.) and 1% (v/v) antibiotic-antimycotic (ABAM: Sigma, St. Louis, Mo.). For assays, cells were seeded in collagen coated 96-well polystyrene plates (BD Biosciences, Franklin Lakes, N.J.) at a density of 40,000 cells/well and cultured for 24 h in the same medium (100 μL/well) followed by a further 16-24 h in 100 μL of similar medium, but without FCS. […] Plates were then allowed to stand at room temperature for 20 minutes before being washed with 200 μL/well of PBS. (Further steps were performed immediately or the plates were stored at 4 degrees C. and the assay completed the next day.) To each well was added 100 μL 1% (v/v) TritonX-100 (Sigma, St. Louis, Mo.) in PBS followed by 20 minutes standing at room temperature, washing with 200 μL/well PBS, the addition of 100 μL/well of Quenching buffer (1% (v/v) hydrogen peroxide (Sigma, St. Louis, Mo.) and 0.1% (w/v) sodium azide (Fisher Scientific, Fair Lawn, N.J.)) in PBS and a further 20 minutes at room temperature. Plates were then washed twice with 200 μL/well of 0.1% (v/v) Tween-20 (Teknova, Hollister, Calif.) in PBS before addition of 200 μL/well of 2% BSA/0.1% Tween-20 in PBS and a further 1 hour at room temperature. […] After a further one hour, rabbit anti-phospho-c-jun-Ser63 is added directly to the solution in the Blank wells resulting in 1:250 dilution of this antibody. Plates were then placed on a slowly rotating platform at 4 degrees C. overnight. Wells were then washed thrice with 200 μL/well PBS/0.1% Tween-20. After addition of the third wash, the plates were placed on a slowly rotating platform for 15 minutes at room temperature. The final PBS/Tween20 wash was then replaced with 100 μL/well of donkey anti-rabbit HRP-labeled Second Antibody (Jackson ImmunoResearch Laboratory, West Grove, Pa.) diluted 1:10,000 in Antibody Dilution Buffer and the plates placed on a slowly rotating platform for 1 hour at room temperature. Wells were then washed four times with 200 μL/well PBS/0.1% Tween-20, including slow rotation for 30 minutes for the third wash and 10 minutes for the final wash. The wells were then washed once with 200 μL PBS without Tween-20. […] Absorbance was determined at a 450 nm wavelength using a spectrophotometer (Molecular Devices SpectraMax 250).

JNK1, sequence (P45983 whole entry): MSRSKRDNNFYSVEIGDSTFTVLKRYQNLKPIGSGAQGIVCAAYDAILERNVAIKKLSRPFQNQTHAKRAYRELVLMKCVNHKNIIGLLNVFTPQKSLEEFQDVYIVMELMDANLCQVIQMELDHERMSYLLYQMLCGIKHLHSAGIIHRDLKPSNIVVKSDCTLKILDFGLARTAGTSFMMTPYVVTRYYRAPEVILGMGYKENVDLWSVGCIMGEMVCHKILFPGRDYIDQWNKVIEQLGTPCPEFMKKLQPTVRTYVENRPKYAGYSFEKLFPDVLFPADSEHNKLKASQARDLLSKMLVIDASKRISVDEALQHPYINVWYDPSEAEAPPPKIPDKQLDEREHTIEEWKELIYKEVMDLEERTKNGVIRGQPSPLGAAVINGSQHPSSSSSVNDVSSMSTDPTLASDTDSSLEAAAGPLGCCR

| IC50 (JNK1) | EC50 [1] | SMILES |
| --- | --- | --- |
| 100 nM | 52000 nM | O=C(NCc1cn(-c2ccccc2)c2cc(Cl)ccc2c1=O)c1ccc(N2CCCC2)nc1 [Example I-84, N-(7-Chloro-4-oxo-1-phenyl-1,4-dihydro-quinolin-3-ylmethyl)-6-pyrrolidin-1-yl-nicotinamide] |
| 49 nM | 22000 nM | O=C(NCc1cn(-c2ccccc2)c2cc(Cl)ccc2c1=O)c1ccc(NC2CCOCC2)nc1 [Example I-78, N-(7-Chloro-4-oxo-1-phenyl-1,4-dihydro-quinolin-3-ylmethyl)-6-(tetrahydro-pyran-4-ylamino)-nicotinamide] |
| 13 nM | 6300 nM | COC(=O)c1c(CNC(=O)c2cnn(Cc3ccccc3)c2)c(=O)c2ccc(Cl)cc2n1-c1ccccc1 [Example I-119, 3-{[(1-Benzyl-1H-pyrazole-4-carbonyl)-amino]-methyl}-7-chloro-4-oxo-1-phenyl-1,4-dihydro-quinoline-2-carboxylic acid methyl ester] |
| 64 nM | 54000 nM | COc1ccc(C(=O)NCc2c(C(=O)N(C)C)n(-c3ccccc3)c3cc(Cl)ccc3c2=O)cc1 [Example I-15, 7-Chloro-3-[(4-methoxy-benzoylamino)-methyl]-4-oxo-1-phenyl-1,4-dihydro-quinoline-2-carboxylic acid dimethylamide] |
| 52 nM | 6200 nM | O=C(NCc1cn(-c2ccccc2)c2cc(Cl)ccc2c1=O)c1ccc(C(=O)NC2C3CC4CC2CC(O)(C4)C3)cc1 (centres unmarked) [Example I-99, N-(7-Chloro-4-oxo-1-phenyl-1,4-dihydro-quinolin-3-ylmethyl)-N′-(5-hydroxy-adamantan-2-yl)-terephthalamide] |
| 16 nM | 2200 nM | COC(=O)c1c(CNC(=O)c2ccc(N3CCOCC3)cc2)c(=O)c2ccc(Cl)cc2n1-c1ccccc1 [Example I-123, 7-Chloro-3-[(4-morpholin-4-yl-benzoylamino)-methyl]-4-oxo-1-phenyl-1,4-dihydro-quinoline-2-carboxylic acid methyl ester] |
| 6 nM | 13000 nM | COC(=O)c1ccc(C(=O)NCc2c(C(=O)OC)n(-c3ccccc3)c3cc(Cl)ccc3c2=O)cc1 [Example I-133, 7-Chloro-3-[(4-methoxycarbonyl-benzoylamino)-methyl]-4-oxo-1-phenyl-1,4-dihydro-quinoline-2-carboxylic acid methyl ester] |
| 51 nM | 9600 nM | CN(C)C(=O)c1c(CNC(=O)c2ccc(N3CCC(CCO)CC3)nc2)c(=O)c2ccc(Cl)cc2n1-c1ccccc1 [Example I-25, 4-(2-Hydroxy-ethyl)-3,4,5,6-tetrahydro-2H-[1,2′]bipyridinyl-5′-carboxylic acid (7-chloro-2-dimethylcarbamoyl-4-oxo-1-phenyl-1,4-dihydro-quinolin-3-ylmethyl)-amide] |
| 47 nM | 15000 nM | Cn1cc(C(=O)NCc2c(-c3ncco3)n(-c3ccccc3)c3ncccc3c2=O)cn1 [Example I-11, 1-Methyl-1H-pyrazole-4-carboxylic acid (2-oxazol-2-yl-4-oxo-1-phenyl-1,4-dihydro-[1,8]naphthyridin-3-ylmethyl)-amide] |
| 50 nM | 11000 nM | COC(=O)c1c(CNC(=O)c2ccc(-c3nnn(C)n3)cc2)c(=O)c2ccc(Cl)cc2n1-c1ccccc1 [Example I-129, 7-Chloro-3-{[4-(2-methyl-2H-tetrazol-5-yl)-benzoylamino]-methyl}-4-oxo-1-phenyl-1,4-dihydro-quinoline-2-carboxylic acid methyl ester] |
| 47 nM | 63000 nM | O=C(NCc1cn(-c2ccccc2)c2cc(Cl)ccc2c1=O)c1ccc(NCCO)nc1 [Example I-77, N-(7-Chloro-4-oxo-1-phenyl-1,4-dihydro-quinolin-3-ylmethyl)-6-(2-hydroxy-ethylamino)-nicotinamide] |
| 89 nM | 25000 nM | O=C(NCc1cn(-c2ccccc2)c2cc(Cl)ccc2c1=O)c1ccc2scnc2c1 [Example I-42, Benzothiazole-5-carboxylic acid (7-chloro-4-oxo-1-phenyl-1,4-dihydro-quinolin-3-ylmethyl)-amide] |
| 30 nM | 8700 nM | COC(=O)c1c(CNC(=O)c2ccc(-c3ccn[nH]3)cc2)c(=O)c2ccc(C(F)(F)F)nc2n1-c1ccccc1 [Example I-156, 4-Oxo-1-phenyl-3-{[4-(2H-pyrazol-3-yl)-benzoylamino]-methyl}-7-trifluoromethyl-1,4-dihydro-[1,8]naphthyridine-2-carboxylic acid methyl ester] |
| 7 nM | 4100 nM | COC(=O)c1c(CNC(=O)c2ccc(-c3ncc[nH]3)cc2)c(=O)c2ccc(Cl)cc2n1-c1ccccc1 [Example I-114, 7-Chloro-3-{[4-(1H-imidazol-2-yl)-benzoylamino]-methyl}-4-oxo-1-phenyl-1,4-dihydro-quinoline-2-carboxylic acid methyl ester] |
| 18 nM | 7800 nM | COC(=O)c1c(CNC(=O)c2ccc(N3CCOCC3)nc2)c(=O)c2ccc(C(F)(F)F)nc2n1-c1ccccc1 [Example I-152, 3-{[(6-Morpholin-4-yl-pyridine-3-carbonyl)-amino]-methyl}-4-oxo-1-phenyl-7-trifluoromethyl-1,4-dihydro-[1,8]naphthyridine-2-carboxylic acid methyl ester] |
| 8 nM | 4800 nM | COC(=O)c1c(CNC(=O)c2cccc(OC)c2)c(=O)c2ccc(Cl)cc2n1-c1ccccc1 [Example I-135, 7-Chloro-3-[(3-methoxybenzoylamino)-methyl]-4-oxo-1-phenyl-1,4-dihydro-quinoline-2-carboxylic acid methyl ester] |
| 24 nM | 33000 nM | O=C(NCc1cn(-c2ccccc2)c2cc(Cl)ccc2c1=O)c1ccc(N2CC[C@@H](O)C2)nc1 [Example I-70] |
| 39 nM | 14000 nM | COC(=O)c1c(CNC(=O)c2ccccc2)c(=O)c2ccccc2n1-c1ccccc1 [Example I-151, 3-(Benzoylamino-methyl)-4-oxo-1-phenyl-1,4-dihydro-quinoline-2-carboxylic acid methyl ester] |
| 90 nM | 29000 nM | O=C(NCc1cn(-c2ccccc2Cl)c2cc(Cl)ccc2c1=O)c1ccc(N2CCOCC2)nc1 [Example I-100] |
| 19 nM | 40000 nM | O=C(NCc1cn(-c2ccccc2)c2cc(Cl)ccc2c1=O)c1ccc(N2CCCCC2)nc1 [Example I-65, 3,4,5,6-Tetrahydro-2H-[1,2′]bipyridinyl-5′-carboxylic acid (7-chloro-4-oxo-1-phenyl-1,4-dihydro-quinolin-3-ylmethyl)-amide] |
| 330 nM | 25000 nM | CN(C)C(=O)c1c(CNC(=O)c2ccn(Cc3ccccc3)c(=O)c2)c(=O)c2ccc(Cl)cc2n1-c1ccccc1 [Example I-22, 3-{[(1-Benzyl-2-oxo-1,2-dihydro-pyridine-4-carbonyl)-amino]-methyl}-7-chloro-4-oxo-1-phenyl-1,4-dihydro-quinoline-2-carboxylic acid dimethylamide] |
| 9 nM | 3100 nM | O=C(NCc1c(-c2ncco2)n(-c2ccccc2)c2cc(Cl)ccc2c1=O)c1ccc(N2CCOCC2)nc1 [Example I-3, N-(7-Chloro-2-oxazol-2-yl-4-oxo-1-phenyl-1,4-dihydro-quinolin-3-ylmethyl)-6-morpholin-4-yl-nicotinamide] |
